Tests used:
[1] = target: T1, Hen egg white lysozyme (HEWL) (Gallus gallus, UniProt P00698); assay: heat-induced aggregation, turbidity at […] nm, single exponential fit; assay type: biochemical; settings: pH 7.4, 65°C, 120 h, 10 μM HEWL, stirring; inhibition of aggregation
T1 construct: gene LYZ; native egg-white protein, commercial (Sigma), dialysed; mature chain, 129 residues, monomer, four disulfides

[2] = target: T1, Hen egg white lysozyme (HEWL); assay: intrinsic Trp fluorescence quenching, modified Stern-Volmer; assay type: binding; settings: pH 7.4, 20 mM sodium phosphate, 25°C, 5 μM HEWL, excitation 295 nm, double-log
Text: intrinsic Trp fluorescence quenching, modified Stern-Volmer on Hen egg white lysozyme (HEWL)

T1 sequence (P00698 19-147): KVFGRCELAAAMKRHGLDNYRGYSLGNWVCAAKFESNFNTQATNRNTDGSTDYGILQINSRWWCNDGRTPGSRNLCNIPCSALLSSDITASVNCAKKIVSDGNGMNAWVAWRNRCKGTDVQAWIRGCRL

Row | Compound | Λ [1] | binding constant ([2]; n = 1.1, unreliable (text b59 prints another value)) | binding constant ([2]; n = 1.2)
1 | N[C@@H]1CONC1=O [D-cycloserine, D-4-amino-3-isoxazolidone] | 470 M⁻¹ | (2.70±0.18)×10^3 M^-1 | 
2 | NC(=O)c1cnccn1 [pyrazinamide] | 1500 M⁻¹ |  | (2.45±0.19)×10^4 M^-1

From article PMC4552381, “Unraveling Comparative Anti-Amyloidogenic Behavior of Pyrazinamide and D-Cycloserine: A Mechanistic Biophysical Insight” (PLoS ONE, 2015)
